Measurements reported in patent US7037682B2, “In vitro activity assay for human hepatitis B virus (HBV) DNA polymerase, and its use for screening for inhibitors of HBV DNA polymerase” (Government of the Republic of Singapore, priority 1999, dated 2006).
Entries after “also recorded” stand apart in the source; their conditions may differ.

What follows are compounds tested on wild type human HBV DNA polymerase (assay: In vitro priming activity assay of human HBV DNA polymerase (anti-priming testing, nitrocellulose membrane filtration)). Settings: in vitro translated wild type enzyme in wheat germ lysate; [α-32P] dTTP; corresponding nucleotide replaced with the analog; 30° C. for 30 min; FIG. 6.
Assay type: biochemical, human hepatitis B virus (HBV)
Protocol: Unless otherwise noted, the polymerase activity assay was conducted in solution containing 100 mM Tris HCl (pH 7.5), 10 mM MgCl2, 30 mM NaCl, 10% glycerol, 4 mM dithiothreitol, 100 μM of each unlabeled deoxyribonucleotide triphosphates (dATP, dCTP and dGTP) and 5 μCi [α-^32P] dTTP. The reactions were incubated at 30° C. for 30 min, after which time a 5 μl aliquot was added to 85 μl of tricine sodium dodecyl sulfate-polyacrylamide gel electrophoresis (SDS-PAGE) sample buffer (Novex, U.S.A.), and 10 μl were analyzed on 10% SDS-PAGE. Following electrophoresis, gels were fixed by soaking in 10% methanol plus 10% acetic acid and dried under vacuum. Dried gels were exposed to X-ray film and signals quantified by laser densitometry.
Screening for inhibitors of human HBV DNA polymerase would provide novel therapeutic agents for HBV infection, as effective inhibition of the polymerase activity will lead to inhibition of HBV viral replication. The simplified activity assay reported in the present invention would allow faster analysis of the inhibitory effects of newly found molecules on DNA polymerase of variant HBV carrying mutations on the major surface antigen. Briefly, a candidate inhibitor was first incubated with the wild type human HBV DNA polymerase that was PCR amplified and in vitro translated as reported in the present invention. The incubation was in the presence of [α-^32P] dTTP and with other conditions identical as above-mentioned. Its inhibitory effect may be determined either by laser densitometry following SDS-PAGE analysis, or by measuring the amount of radiolabeled HBV DNA polymerase bound to nitrocellulose membrane after filtration. […] Further assay on the potential inhibitory effect derived from the above-mentioned assay may then be extended to other systems such as HBV-producing cell lines and transgenic animal model.
Depending on the type of label used, detection of the labeled hybrid HBV DNA polymerase product may be achieved by any appropriate means. Generally this may include a step of separating labeled mononucleotide from labeled human HBV DNA polymerase. […] When the label is a radiolabel as is the case in the simplified assay reported in the present invention, then the amount of radioactivity bound to the filter may be quantified using a plate reading scintillation counter.
In the present invention, the following nucleotide analogs capable of inhibiting the HBV DNA polymerase activity may be assayed for their anti-priming activity. […] The remaining radiolabeled human HBV DNA polymerase bound to the nitrocellulose membrane is then measured quantified using a plate reading scintillation counter.

| Structure (SMILES) | anti-priming effect (radiolabeled human HBV DNA polymerase remained on nitrocellulose membrane, as measured by cpm, compared with the control) |
| --- | --- |
| Cc1cn([C@H]2CC[C@@H](COP(=O)(O)OP(=O)(O)OP(=O)(O)O)O2)c(=O)[nH]c1=O [ddTTP] | no obvious anti-priming effect; also recorded: no anti-priming activity is observed |
| Nc1nc2c(ncn2[C@H]2CC[C@@H](COP(=O)(O)OP(=O)(O)OP(=O)(O)O)O2)c(=O)[nH]1 [ddGTP] | inhibitory effect is observed; also recorded: significantly lower amount |
| Nc1ncnc2c1ncn2[C@H]1CC[C@@H](COP(=O)(O)OP(=O)(O)OP(=O)(O)O)O1 [ddATP] | no obvious anti-priming effect; also recorded: no anti-priming activity is observed |
| Nc1ccn([C@H]2CC[C@@H](COP(=O)(O)OP(=O)(O)OP(=O)(O)O)O2)c(=O)n1 [ddCTP] | inhibitory effect is observed; also recorded: significantly lower amount |
